# According to US20250171459A1, “2-METHYL-4',5'-DIHYDROSPIRO[PIPERIDINE-4,7'-THIENO[2,3-C]PYRAN] DERIVATIVES AS INHIBITORS OF APOL1 AND METHODS OF USING SAME” (Vertex Pharmaceuticals Incorporated, priority 2022, published 2025):
# Biological target: T1, APOL1 (Homo sapiens, UniProt O14791)
# T1 sequence (O14791 1-398 S342G/I384M): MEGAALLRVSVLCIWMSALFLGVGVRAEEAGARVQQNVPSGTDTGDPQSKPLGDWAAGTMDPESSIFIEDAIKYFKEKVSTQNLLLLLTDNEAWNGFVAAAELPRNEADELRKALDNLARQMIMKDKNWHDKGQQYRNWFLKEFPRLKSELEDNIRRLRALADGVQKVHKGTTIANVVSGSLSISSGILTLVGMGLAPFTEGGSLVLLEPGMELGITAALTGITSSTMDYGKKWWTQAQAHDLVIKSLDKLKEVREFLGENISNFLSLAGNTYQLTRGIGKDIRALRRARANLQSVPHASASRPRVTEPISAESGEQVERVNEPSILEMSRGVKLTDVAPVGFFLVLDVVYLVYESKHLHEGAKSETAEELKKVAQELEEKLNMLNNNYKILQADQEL
# Assay: MultiTox-Fluor Multiplex Cytotoxicity Assay in tet-inducible APOL1 T-REx-HEK293 cells (cell rescue, ratio of dead to live cells)
# Type: cell-based
# Details: tet-inducible transgenic APOL1 T-REx-HEK293 cell lines, 50 ng/mL tet, 24 hours; read-out: IP50 (i.e., IC50 for cell proliferation)
# In short: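 T-REx-HEK293 cells with tet-inducible APOL1 were treated with compound (10 μM top, 10-point 3-fold dilution, duplicate) plus 50 ng/mL tetracycline for 24 h at 37° C, in DMEM with 2% tet-free FBS. MultiTox-Fluor protease signals gave a dead/live ratio, normalized to no tet (100% viability) and tet alone (0%).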
row,Structure (SMILES),IC50 [nM]
1,"CNC(=O)C(C)(O)Cn1cc(CN2CC[C@]3(C[C@@H]2C)OCCc2c3sc(C(F)(F)F)c2CO)cn1 (stereo partly drawn) [Compound 990, 2-Hydroxy-3-[4-[[(2′S, 7R)-3-(hydroxymethyl)-2′-methyl-2-(trifluoromethyl)spiro[4,5-dihydrothieno[2,3-c]pyran-7,4′-piperidine]-1′-yl]methyl]pyrazol-1-yl]-N,2-dimethyl-propanamide]",< 100
2,"C[C@H]1C[C@@]2(CCN1Cc1cnn(CC(C)(O)C(=O)NC3CC3)c1)OCCc1c2sc(C(F)(F)F)c1CO (stereo partly drawn) [Compound 991, N-cyclopropyl-2-hydroxy-3-[4-[[(2′S, 7R)-3-(hydroxymethyl)-2′-methyl-2-(trifluoromethyl)spiro[4,5-dihydrothieno[2,3-c]pyran-7,4′-piperidine]-1′-yl]methyl]pyrazol-1-yl]-2-methyl-propanamide]",< 100
3,"C[C@H]1C[C@@]2(CCN1Cc1cnn(C[C@@H](O)C(N)=O)c1)OC[C@@H](O)c1cc(C(F)(F)F)sc12 [Compound 992, (2R)-2-hydroxy-3-[4-[[(2′S,4S,7R)-4-hydroxy-2′-methyl-2-(trifluoromethyl)spiro[4,5-dihydrothieno[2,3-c]pyran-7,4′-piperidine]-1′-yl]methyl]pyrazol-1-yl]propanamide]",< 100
4,CNC(=O)[C@H](O)Cn1cc(CN2CC[C@]3(C[C@@H]2C)OC[C@@H](O)c2cc(C(F)(F)F)sc23)cn1 [Compound 993],100 to 500
5,C[C@H]1C[C@@]2(CCN1Cc1cnn(C[C@@H](O)C(=O)N(C)C)c1)OC[C@@H](O)c1cc(C(F)(F)F)sc12 [Compound 994],< 100
6,C[C@H]1C[C@@]2(CCN1Cc1cnn(C[C@@H](O)C(=O)NC3CC3)c1)OC[C@@H](O)c1cc(C(F)(F)F)sc12 [Compound 995],< 100
7,C[C@H]1C[C@@]2(CCN1Cc1cnn(C[C@H](O)C(N)=O)c1)OC[C@@H](O)c1cc(C(F)(F)F)sc12 [Compound 996],< 100
8,CNC(=O)[C@@H](O)Cn1cc(CN2CC[C@]3(C[C@@H]2C)OC[C@@H](O)c2cc(C(F)(F)F)sc23)cn1 [Compound 997],< 100
9,C[C@H]1C[C@@]2(CCN1Cc1cnn(C[C@H](O)C(=O)N(C)C)c1)OC[C@@H](O)c1cc(C(F)(F)F)sc12 [Compound 998],< 100
10,C[C@H]1C[C@@]2(CCN1Cc1cnn(C[C@H](O)C(=O)NC3CC3)c1)OC[C@@H](O)c1cc(C(F)(F)F)sc12 [Compound 999],< 100
11,"C[C@H]1C[C@@]2(CCN1Cc1cn(C(C)(C)CO)nn1)OCCc1c2sc(C(F)(F)F)c1CO [Compound 1000, 2-[4-[[(2′S, 7R)-3-(hydroxymethyl)-2′-methyl-2-(trifluoromethyl)spiro[4,5-dihydrothieno[2,3-c]pyran-7,4′-piperidine]-1′-yl]methyl]triazol-1-yl]-2-methyl-propan-1-ol]",500 to 1000
12,C[C@H]1C[C@@]2(CCN1Cc1cn(CCCS(C)(=O)=O)nn1)OCCc1c2sc(C(F)(F)F)c1CO [Compound 1001],100 to 500
13,CC(O)Cn1cc(CN2CC[C@]3(C[C@@H]2C)OCCc2c3sc(C(F)(F)F)c2CO)nn1 (some centres unmarked) [Compound 1002],< 100
14,C[C@H]1C[C@@]2(CCN1Cc1cn(CC(C)(CO)CO)nn1)OCCc1c2sc(C(F)(F)F)c1CO [Compound 1003],< 100
15,C[C@H]1C[C@@]2(CCN1Cc1cn(C3CCOCC3)nn1)OCCc1c2sc(C(F)(F)F)c1CO [Compound 1004],100 to 500
16,C[C@H]1C[C@@]2(CCN1Cc1cn(CC(O)C(C)(C)O)nn1)OCCc1c2sc(C(F)(F)F)c1CO (some centres unmarked) [Compound 1005],< 100
17,"COC(=O)c1c(C(F)(F)F)sc2c1CCO[C@@]21CCN(Cc2cn(CCS(C)(=O)=O)nn2)[C@@H](C)C1 [Compound 1006, Methyl (2′S,7R)-2′-methyl-1′-[[1-(2-methylsulfonylethyl)triazol-4-yl]methyl]-2-(trifluoromethyl)spiro[4,5-dihydrothieno[2,3-c]pyran-7,4′-piperidine]-3-carboxylate]",100 to 500
